According to ChEMBL document CHEMBL1147583, “Respiratory syncytial virus inhibitors. Part 2: Benzimidazol-2-one derivatives” (Bioorg Med Chem Lett, 2004):

Columns and labels:
HEp-2 [1] = assay: Cytotoxic activity against uninfected HEp-2 human […] epithelial carcinoma cell line; type: functional
[2] = Therapeutic index expressed as the ratio between CC50 and EC50; type: cell-based; settings: human, HEp-2 cells; read-out: Therapeutic index
HEp-2 [3] = assay: Antiviral activity against respiratory syncytial virus in HEp-2 human […] epithelial carcinoma cell line; type: functional, cell-based

| Compound | EC50 (HEp-2 [3]) [µM] | CC50 (HEp-2 [1]) [µM] | selectivity ratio [2] |
| --- | --- | --- | --- |
| CC(C)CCn1c(Cn2c(=O)n(CCCCCC#N)c3ccccc32)nc2ccccc21 | 0.025 | 13.4 | 536 |
| CC(C)CCn1c(Cn2c(=O)n(Cc3ccc(C(=O)N(C)C)cc3)c3ccccc32)nc2ccccc21 | 0.021 | 26.6 | 1270 |
| CCNC(=O)n1c(=O)n(Cc2nc3ccccc3n2CCC(C)C)c2ccccc21 | 0.052 | 18.7 | 359 |
| CS(=O)(=O)CCCn1c(Cn2c(O)nc3ccccc32)nc2ccccc21 | 1.49 | 216 | 144 |
| CC(C)CCn1c(Cn2c(=O)n(Cc3ccc(O)cc3)c3ccccc32)nc2ccccc21 | 0.018 | 59.9 | 3330 |
| CCn1c(=O)n(Cc2nc3ccccc3n2CC(O)c2ccccc2)c2ccccc21 (stereo not given) | 0.037 | > 241 | > 6500 |
| CCn1c(=O)n(Cc2nc3ccccc3n2CCO)c2ccccc21 | 0.229 | 64.1 | 279 |
| CC(C)CCn1c(Cn2c(=O)n(C(=O)NCc3ccccc3)c3ccccc32)nc2ccccc21 | 0.086 | 6.44 | 74 |
| CC(C)CCn1c(Cn2c(=O)n(CCCC#N)c3ccccc32)nc2ccccc21 | 0.04 | 59.6 | 1490 |
| CCn1c(=O)n(Cc2nc3ccccc3n2CCCCO)c2ccccc21 | 0.014 | 154 | 11000 |
| CC(C)CCn1c(Cn2c(O)nc3ccccc32)nc2ccccc21 | 0.057 | 61.1 | 1070 |
| CS(=O)(=O)CCCn1c(Cn2c(=O)n(CCCCC#N)c3ccccc32)nc2ccccc21 | 0.071 | > 214 | > 3020 |
| CCn1c(=O)n(Cc2nc3ccccc3n2CC(=O)c2ccccc2)c2ccccc21 | 0.112 | 27.1 | 241 |
| C=C(C)n1c(=O)n(Cc2nc3ccccc3n2CCCS(C)(=O)=O)c2ccccc21 | 0.03 | 123 | 4110 |
| C=C(C)n1c(=O)n(Cc2nc3ccccc3n2CCC(C)O)c2ccccc21 (stereo not given) | 0.028 | 172 | 6130 |
| N#CCCCCn1c(=O)n(Cc2nc3ccccc3n2CCCC#N)c2ccccc21 | 0.025 | > 242 | > 9090 |
| CCOC(=O)n1c(=O)n(Cc2nc3ccccc3n2CCC(C)C)c2ccccc21 | 0.298 | 57.7 | 193 |
| C=C(C)n1c(=O)n(Cc2nc3ccccc3n2CCCCC#N)c2ccccc21 | 0.027 | 193 | 7140 |
| CC(C)CCn1c(Cn2c(=O)n(S(=O)(=O)C(C)C)c3ccccc32)nc2ccccc21 | 0.065 | 16.9 | 260 |

| Compound | EC50 (HEp-2 [3]) [µM] | CC50 (HEp-2 [1]) [µM] | selectivity ratio [2] |
| --- | --- | --- | --- |
| N#Cc1ccc(Cn2c(=O)n(Cc3nc4ccccc4n3CCCCO)c3ccccc32)cc1 | 0.053 | 39.2 | 739 |
| CC(C)CCn1c(Cn2c(=O)n(CC#N)c3ccccc32)nc2ccccc21 | 0.028 | 46.8 | 1670 |
| CC(C)CCn1c(Cn2c(=O)n(Cc3cc(I)c(O)c(I)c3)c3ccccc32)nc2ccccc21 | 0.686 | > 144 | > 209 |
| N#CCCn1c(Cn2c(O)nc3ccccc32)nc2ccccc21 | 0.099 | > 310 | > 3130 |
| C=C(C)n1c(=O)n(Cc2nc3ccccc3n2CCC#N)c2ccccc21 | 0.015 | 79.6 | 5310 |
| CC(=O)n1c(=O)n(Cc2nc3ccccc3n2CCC(C)C)c2ccccc21 | 0.71 | 116 | 162 |
| CC1(CCn2c(Cn3c(=O)n(Cc4cc(I)c(O)c(I)c4)c4ccccc43)nc3ccccc32)N=N1 | 0.038 | 27.1 | 713 |
| C=CCn1c(=O)n(Cc2nc3ccccc3n2CCC(C)C)c2ccccc21 | 0.016 | 12.8 | 800 |
| CC(C)CCn1c(Cn2c(=O)n(C(=O)Nc3ccccc3)c3ccccc32)nc2ccccc21 | 0.041 | 21.6 | 526 |
| OCCCCn1c(Cn2c(O)nc3ccccc32)nc2ccccc21 | 0.173 | > 168 | > 971 |
| C=C(C)n1c(=O)n(Cc2nc3ccccc3n2CCCCCCO)c2ccccc21 | 0.114 | > 247 | > 2170 |
| CC(C)CCn1c(Cn2c(=O)n(S(=O)(=O)N(C)C)c3ccccc32)nc2ccccc21 | 0.062 | 27.1 | 437 |
| C=C(C)n1c(=O)n(Cc2nc3ccccc3[nH]2)c2ccccc21 | 0.75 | 28.4 | 38 |
| CC(C)CCn1c(Cn2c(=O)n(CCCCC#N)c3ccccc32)nc2ccccc21 | 0.035 | 15 | 428 |
| CC(=O)CCn1c(Cn2c(O)nc3ccccc32)nc2ccccc21 | 0.191 | 299 | 1560 |
| CC(C)CCn1c(Cn2c(=O)n(C(N)=O)c3ccccc32)nc2ccccc21 | 0.05 | 134 | 2670 |
| CS(=O)(=O)CCCn1c(Cn2c(=O)n(CCCCO)c3ccccc32)nc2ccccc21 | 0.092 | > 229 | > 2490 |
| CC(O)CCn1c(Cn2c(O)nc3ccccc32)nc2ccccc21 (stereo not given) | 0.416 | > 262 | > 629 |

These reach a lower EC50 (HEp-2 [3]). Values come first.

| EC50 (HEp-2 [3]) [µM] | Compound | CC50 (HEp-2 [1]) [µM] | selectivity ratio [2] |
| --- | --- | --- | --- |
| 0.005 | CC(C)n1c(=O)n(Cc2nc3ccccc3n2CCCCCCC#N)c2ccccc21 | > 189 | > 37800 |
| 0.005 | C=C(C)n1c(=O)n(Cc2nc3ccccc3n2CCC(C)=O)c2ccccc21 | 245 | 48900 |
| 0.005 | C=C(C)n1c(=O)n(Cc2nc3ccccc3n2CCCC#N)c2ccccc21 | – | – |
| 0.008 | CC(C)n1c(=O)n(Cc2nc3ccccc3n2CCC#N)c2ccccc21 | 73.5 | 9190 |
| 0.012 | CC(C)CCn1c(Cn2c(=O)n(Cc3ccc(C#N)cc3)c3ccccc32)nc2ccccc21 | 5.59 | 465 |
| 0.01 | CCn1c(=O)n(Cc2nc3ccccc3n2CCCO)c2ccccc21 | 179 | 17900 |
| 0.011 | CCn1c(=O)n(Cc2nc3ccccc3n2CCC(C)C)c2ccccc21 | 18.6 | 1690 |
| 0.009 | CC(C)CCn1c(Cn2c(=O)n(Cc3ccc(S(C)(=O)=O)cc3)c3ccccc32)nc2ccccc21 | 7.5 | 833 |
| 0.007 | CC(C)CCn1c(Cn2c(=O)n(S(C)(=O)=O)c3ccccc32)nc2ccccc21 | 16.3 | 2330 |
| 0.013 | C=C(C)n1c(=O)n(Cc2nc3ccccc3n2CCCCCC#N)c2ccccc21 | 12.3 | 946 |
| 0.004 | C=C(C)n1c(=O)n(Cc2nc3ccccc3n2CCCCO)c2ccccc21 | 171 | 42700 |
| 0.011 | CC(C)n1c(=O)n(Cc2nc3ccccc3n2CCCCO)c2ccccc21 | 68.3 | 6210 |
| 0.004 | CC(C)CCn1c(Cn2c(=O)n(Cc3ccc(S(=O)(=O)N(C)C)cc3)c3ccccc32)nc2ccccc21 | > 153 | > 38200 |
| 0.004 | CC1(CCn2c(Cn3c(=O)n(Cc4ccc(O)cc4)c4ccccc43)nc3ccccc32)N=N1 | > 220 | > 28000 |
| 0.004 | C=C(C)n1c(=O)n(Cc2nc3ccccc3n2CCC(C)C)c2ccccc21 | 24.7 | 6180 |
| 0.006 | C=C(C)n1c(=O)n(Cc2nc3ccccc3n2CCCCCCC#N)c2ccccc21 | 36 | > 6000 |
| 0.005 | N#CCCn1c(Cn2c(=O)n(-c3ccccc3)c3ccccc32)nc2ccccc21 | 87 | 17400 |
